Reference: PubChem BioAssay (NCI)
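Results reflect a 48-hour exposure of cells in 96-well plates to compound at five concentrations. GI50 is the concentration that inhibits growth by half. The concentration for full growth arrest is given as TGI.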

Columns and labels:
Experiment in all cases: inhibition of tumour cell growth, NCI panel, 48 h
[1] = system: 786-0 renal
[2] = system: A498 renal
[3] = system: A549 NSCLC
[4] = system: ACHN renal
[5] = system: BT-549 breast
[6] = system: CAKI-1 renal
[7] = system: CCRF-CEM leukemia
[8] = system: COLO 205 colon
[9] = system: DU-145 prostate
[10] = system: EKVX NSCLC
[11] = system: HCC-2998 colon
[12] = system: HCT-116 colon
[13] = system: HCT-15 colon
[14] = system: HL-60(TB) leukemia
[15] = system: HOP-62 NSCLC
[16] = system: HOP-92 NSCLC
[17] = system: HS 578T breast
[18] = system: HT29 colon
[19] = system: IGROV1 ovarian
[20] = system: K-562 leukemia
[21] = system: KM12 colon
[22] = system: LOX IMVI melanoma
[23] = system: M14 melanoma
[24] = system: MALME-3M melanoma
[25] = system: MCF7 breast
[26] = system: MDA-MB-231 breast
[27] = system: MDA-MB-435
[28] = system: MOLT-4 leukemia
[29] = system: NCI-H226 lung
[30] = system: NCI-H23 lung
[31] = system: NCI-H460 lung
[32] = system: NCI-H522 lung
[33] = system: NCI/ADR-RES ovarian
[34] = system: OVCAR-3 ovarian
[35] = system: OVCAR-4 ovarian
[36] = system: OVCAR-5 ovarian
[37] = system: OVCAR-8 ovarian
[38] = system: PC-3 prostate
[39] = system: RPMI-8226 leukemia
[40] = system: RXF 393 renal
[41] = system: SF-268 CNS
[42] = system: SF-295 CNS
[43] = system: SF-539 CNS
[44] = system: SK-MEL-2 melanoma
[45] = system: SK-MEL-28 melanoma
[46] = system: SK-MEL-5 melanoma
[47] = system: SK-OV-3 ovarian
[48] = system: SN12C renal
[49] = system: SNB-19 CNS
[50] = system: SNB-75 CNS
[51] = system: SR leukemia
[52] = system: SW-620 colon
[53] = system: T-47D breast
[54] = system: TK-10 renal
[55] = system: U251 CNS
[56] = system: UACC-257 melanoma
[57] = system: UACC-62 melanoma
[58] = system: UO-31 renal

NCCCCCCn1c2c(c3ccccc3c1=O)C(=O)c1ccccc1-2
GI50 [1]: 603 nM | TGI [1]: > 100000 nM | GI50 [2]: 675 nM | TGI [2]: 2970 nM | GI50 [3]: 1220 nM | TGI [3]: 25800 nM | GI50 [4]: 526 nM | TGI [4]: 2710 nM | GI50 [5]: 1800 nM | TGI [5]: 4730 nM | GI50 [6]: 1960 nM | TGI [6]: 8250 nM | GI50 [7]: 512 nM | TGI [7]: 3210 nM | GI50 [8]: 1600 nM | TGI [8]: 13700 nM | GI50 [9]: 608 nM | TGI [9]: > 100000 nM | GI50 [10]: 10300 nM | TGI [10]: 28800 nM | GI50 [11]: 2250 nM | TGI [11]: 14300 nM | GI50 [12]: 909 nM | TGI [12]: 6110 nM | GI50 [13]: 717 nM | TGI [13]: 5860 nM | GI50 [14]: 266 nM | TGI [14]: 1420 nM | GI50 [15]: 1280 nM | TGI [15]: 4500 nM | GI50 [16]: 2570 nM | TGI [16]: 16000 nM | GI50 [17]: 2510 nM | TGI [17]: 11100 nM | GI50 [18]: 1200 nM | TGI [18]: 4420 nM | GI50 [19]: 1070 nM | TGI [19]: 4310 nM | GI50 [20]: 705 nM | TGI [20]: 5350 nM | GI50 [21]: 1380 nM | TGI [21]: 6900 nM | GI50 [22]: 1120 nM | TGI [22]: 2990 nM | GI50 [23]: 2280 nM | TGI [23]: 5000 nM | GI50 [24]: 1910 nM | TGI [24]: 4610 nM | GI50 [25]: 744 nM | TGI [25]: 3610 nM | GI50 [26]: 1980 nM | TGI [26]: 5460 nM | GI50 [27]: 2050 nM | TGI [27]: 4760 nM | GI50 [28]: 237 nM | TGI [28]: 972 nM | GI50 [29]: 1080 nM | TGI [29]: 3070 nM | GI50 [30]: 1500 nM | TGI [30]: 6540 nM | GI50 [31]: 415 nM | TGI [31]: 11300 nM | GI50 [32]: 1170 nM | TGI [32]: 2880 nM | GI50 [33]: 2460 nM | TGI [33]: 11700 nM | GI50 [34]: 1980 nM | TGI [34]: 6240 nM | GI50 [35]: 2190 nM | TGI [35]: 7240 nM | GI50 [36]: 1880 nM | TGI [36]: 4600 nM | GI50 [37]: 1540 nM | TGI [37]: 11300 nM | GI50 [38]: 2120 nM | TGI [38]: 11800 nM | GI50 [39]: 1530 nM | TGI [39]: 6070 nM | GI50 [40]: 12000 nM | TGI [40]: 64800 nM | GI50 [41]: 2300 nM | TGI [41]: 16200 nM | GI50 [42]: 1470 nM | TGI [42]: 5560 nM | GI50 [43]: 1240 nM | TGI [43]: 3590 nM | GI50 [44]: 1870 nM | TGI [44]: 3540 nM | GI50 [45]: 1900 nM | TGI [45]: 3760 nM | GI50 [46]: 1300 nM | TGI [46]: 2750 nM | GI50 [47]: 720 nM | TGI [47]: 7420 nM | GI50 [48]: 1330 nM | TGI [48]: 6090 nM | GI50 [49]: 1190 nM | TGI [49]: 10100 nM | GI50 [50]: 1750 nM | TGI [50]: 7720 nM | GI50 [51]: 349 nM | TGI [51]: 2090 nM | GI50 [52]: 613 nM | TGI [52]: 3160 nM | GI50 [53]: 1850 nM | TGI [53]: 5930 nM | GI50 [54]: 1650 nM | TGI [54]: 3820 nM | GI50 [55]: 1430 nM | TGI [55]: 12300 nM | GI50 [56]: 2360 nM | TGI [56]: 5800 nM | GI50 [57]: 1630 nM | TGI [57]: 3500 nM | GI50 [58]: 442 nM | TGI [58]: 1850 nM

CCc1c2c(nc3ccc(OC(=O)NCc4ccc(B5OC(C)(C)C(C)(C)O5)cc4)cc13)-c1cc3c(c(=O)n1C2)COC(=O)[C@]3(O)CC
GI50 [1]: 13.6 nM | TGI [1]: 346 nM | GI50 [2]: 14.1 nM | TGI [2]: 175 nM | GI50 [3]: 82.5 nM | TGI [3]: 8090 nM | GI50 [4]: 20.2 nM | TGI [4]: 1130 nM | GI50 [5]: 52 nM | TGI [5]: 2740 nM | GI50 [6]: 16.2 nM | TGI [6]: 1100 nM | GI50 [7]: < 10 nM | TGI [7]: > 100000 nM | GI50 [8]: 73.4 nM | TGI [8]: 11000 nM | GI50 [9]: 16.8 nM | TGI [9]: > 100000 nM | GI50 [10]: 758 nM | TGI [10]: > 81900 nM | GI50 [11]: 250 nM | TGI [11]: 3560 nM | GI50 [12]: < 10.8 nM | TGI [12]: > 100000 nM | GI50 [13]: 277 nM | TGI [13]: > 100000 nM | GI50 [14]: < 19.1 nM | GI50 [15]: < 10 nM | TGI [15]: 2920 nM | GI50 [16]: 42 nM | TGI [16]: 2470 nM | GI50 [17]: 1140 nM | TGI [17]: 15900 nM | GI50 [18]: 120 nM | TGI [18]: > 21200 nM | GI50 [19]: 214 nM | TGI [19]: > 42700 nM | GI50 [20]: 34.3 nM | TGI [20]: > 100000 nM | GI50 [21]: 167 nM | TGI [21]: > 30100 nM | GI50 [22]: < 10 nM | TGI [22]: 167 nM | GI50 [23]: < 10 nM | TGI [23]: 104 nM | GI50 [24]: 74.1 nM | TGI [24]: 1310 nM | GI50 [25]: < 10 nM | TGI [25]: > 100000 nM | GI50 [26]: 1590 nM | TGI [26]: > 84100 nM | GI50 [27]: 107 nM | TGI [27]: 2700 nM | GI50 [28]: < 10 nM | TGI [28]: > 100000 nM | GI50 [29]: 21.6 nM | TGI [29]: 635 nM | GI50 [30]: 18.1 nM | TGI [30]: 771 nM | GI50 [31]: 14.1 nM | TGI [31]: 343 nM | GI50 [32]: 16.7 nM | TGI [32]: 3870 nM | GI50 [33]: 51.1 nM | TGI [33]: > 100000 nM | GI50 [34]: 148 nM | TGI [34]: 3200 nM | GI50 [35]: 392 nM | TGI [35]: 63700 nM | GI50 [36]: 287 nM | TGI [36]: > 24300 nM | GI50 [37]: 22.8 nM | TGI [37]: > 100000 nM | GI50 [38]: 144 nM | TGI [38]: > 100000 nM | GI50 [39]: 270 nM | TGI [39]: 3480 nM | GI50 [40]: 27.9 nM | TGI [40]: 322 nM | GI50 [41]: < 10 nM | TGI [41]: 4040 nM | GI50 [42]: 16 nM | TGI [42]: 3400 nM | GI50 [43]: < 10 nM | TGI [43]: 77.1 nM | GI50 [44]: 790 nM | TGI [44]: > 22600 nM | GI50 [45]: 577 nM | TGI [45]: 8900 nM | GI50 [46]: 35.6 nM | TGI [46]: 301 nM | GI50 [47]: 28.6 nM | TGI [47]: 8180 nM | GI50 [48]: < 10 nM | TGI [48]: > 100000 nM | GI50 [49]: < 10 nM | TGI [49]: > 100000 nM | GI50 [50]: 19.9 nM | TGI [50]: 448 nM | GI50 [51]: < 10 nM | TGI [51]: > 100000 nM | GI50 [52]: 22.7 nM | GI50 [53]: < 10 nM | TGI [53]: > 100000 nM | GI50 [54]: 1600 nM | TGI [54]: > 91400 nM | GI50 [55]: < 10 nM | TGI [55]: > 100000 nM | GI50 [56]: 226 nM | TGI [56]: 3360 nM | GI50 [57]: < 10 nM | TGI [57]: 220 nM | GI50 [58]: 27.4 nM | TGI [58]: 294 nM
